{
  "source": "paper PMC6943527",
  "about": "“Are the Hydantoin-1,3,5-triazine 5-HT6R Ligands a Hope to a Find New Procognitive and Anti-Obesity Drug? Considerations Based on Primary In Vivo Assays and ADME-Tox Profile In Vitro” (Molecules, 2019)",
  "key": {"[1]": {"test_system": "human serum albumin (HSA) and α1-acid glycoprotein (AGP)", "assay": "Plasma protein binding, TRANSIL XL PPB assay", "procedure": "(§3) The immobilized HSA and AGP used in this study was included in the commercial test TRANSIL^XL PPB (plasma protein binding) assay.\n(§4) The study was performed with use of the commercial TRANSIL^XL PPB Assay (Sovicell, Leipzig, Germany). The test was performed according to recommendations from the protocol provided by the manufacturer. […] Next, the plate was centrifugated at 750 g for 10 min. The supernatants were collected and analyzed by LC/MS.\n(§5) The total fraction bound was estimated by:(3) fb=1−1/1+[HSA]/KDHSA+[AGP]/KDAGP"}, "[2]": {"assay": "Plasma protein binding, TRANSIL XL PPB assay", "conditions": "human, immobilized HSA and AGP at 24:1 (TRANSIL XL PPB assay)", "procedure": "as §3, §4, §5"}, "[3]": {"test_system": "human embryonic kidney (HEK)-293 cells", "parameters": "method as in PMID 30282913", "conditions": "highest concentration 100 µM; cited from earlier work"}, "[4]": {"assay": "Elevated plus-maze (EPM) test", "format": "in vivo, male Wistar rats", "conditions": "for Total distance / X Ambulation / Y Ambulation: mean ± SEM", "protocol": "The experiments were performed on male Wistar rats (200–220 g) obtained from an accredited animal facility at the Jagiellonian University Medical College, Poland. The animals were housed in group of four in controlled environment (ambient temperature 21 ± 2 °C; relative humidity 50%–60%; 12-h light/dark cycles (lights on at 8:00). Standard laboratory food (LSM-B) and filtered water were freely available. Animals were randomly assigned to treatment groups. All the experiments were performed by two observers unaware of the studied treatment between 9:00 and 14:00 on separate groups of animals. All animals were used only once. Procedures involving animals and their care were conducted in accordance with current European Community and Polish legislation on animal experimentation. Additionally, all efforts were made to minimize animal suffering and to use only the number of animals necessary to produce reliable scientific data. The experimental protocols and procedures described in this manuscript were approved by the I Local Ethics Commission in Cracow (no 200/2018), complied with the European Communities Council Directive of 24 November 1986 (86/609/EEC), and were in accordance with the 1996 National Institutes of Health Guide for the Care and Use of Laboratory Animals.\nAll compounds were suspended in 1% Tween 80 immediately before administration in a volume of 2 mL/kg. Compounds were intraperitoneally administered 60 min before testing. Control animals received vehicle (1% Tween 80) according to the same schedule.\nThe testing procedure was based on a method described by. The plus-maze apparatus (an automated device produced by Campden Instruments Ltd. (United Kingdom) was made of durable, high density, non-porous black plastic, elevated to a height of 50 cm, and consisted of two open arms (50 × 10 cm) and two closed arms (50 × 10 cm, and 30 cm high walls) arranged so that the two arms of each type were opposite each other. The floor of the plus-maze was made of infrared transparent material, which means that there were no visible sensors. The plus-maze apparatus was connected to PC software by a control chassis. The experiments were conducted in a darkened room, and only the center of the maze was illuminated with low-intensity light (30 lux measured on the maze level). Each rat was gently placed in the center of the plus-maze, facing one of the closed arms, immediately after a 5-min adaptation period in a plastic black box (60 × 60 × 35 cm), to increase the overall activity in the EPM. During a 5-min test period, an automated motor monitor system recorded the number of entries into the closed and open arms and the time spent in either type of arm. The device counted an effective arm-entry when the four paws of a rat were into any arm. The maze was thoroughly cleaned after each trial. The EPM test is an “unconditional” anxiety-like test based on rodents’ natural aversion to heights and open space.\nThe experiment was performed using an EPM apparatus (details see above). Total ambulation (the total distance covered by a rat and ambulation along the X and Y axes) was taken into account to discern drug effects on general activity from those on open-arm exploration during a 5-min test period (i.e., the time equal to the observation period in the EPM test). Rats’ behavior was not videotaped during the test."}, "[5]": {"parameters": "method as in PMID 30282913", "conditions": "\"conditional\" anxiety-like assay; cited from earlier work"}, "Caco-2 cells": {"test_system": "Caco-2 cells", "assay": "Caco-2 permeability assay", "format": "in vitro ADME", "protocol": "(§1) The Caco-2 (ATCC® HTB-37^TM) cell line was purchased from American Type Culture Collection (ATCC) (Manassas, VG, USA). The cells were cultivated in Dulbecco’s Modified Eagle’s Medium (DMEM) supplemented with 10% fetal bovine serum (FBS) in a humidified atmosphere of 5% CO2. The medium was changed every two days, and the cells were subcultured at 70%–80% confluence. […] The inserts were pretreated first with 50 µL of the medium for two minutes. Next, the 200 µL of cells were seeded at […] concentration per insert in apical compartment, whereas 600 µL was added to the basolateral one. […] TEER (transepithelial electrical resistance) measurements was started from 18 days after seeding by Millicell ERS-2 Volt-Ohm Meter (Merck Millipore, Burlington, MA, USA). […] Then, the monolayer was rinsed with HBSS (Hank’s balanced salt solution) and KMP-10, and the highly permeable reference CFN was added at a 10 µM concentration with the HBSS into the apical chambers. The 600 µL of HBSS was added to the basolateral compartments. Lucifer yellow (5 µM) was also added to the apical chambers as the membrane integrity marker. The plate was placed in the orbital shaker (60 rpm) for 2 h at 37 °C. The compounds’ concentrations in apical and basolateral wells were analyzed using the UPLC-MS method with IS. To confirm the membrane integrity, the fluorescence of lucifer yellow was measured in basolateral compartment by EnSpire multiplate reader (Perkin Elmer, Waltham, MA, USA).\n(§2) The apparent permeability Papp was calculated from two experiments according to the following formula [34]:Papp= dc/dt × V/(A × C0)(1) where: • dc/dt—the change in concentration in the receiving compartment over time • V—volume of the solution in the receiving compartment (mL) • A—surface area of the membrane (cm^2) • C0—the initial concentration in the donor compartment (µM)."}, "[6]": {"assay": "Caco-2 permeability assay", "format": "in vitro ADME", "conditions": "human, Caco-2; 10 µM in apical chamber, 2 h, 37 °C, two experiments; read-out: Caco-2 Papp ± SD", "protocol": "as §1, §2"}, "[7]": {"conditions": "0.3 mg/kg i.p., 60 min before test, 5-min session"}, "[8]": {"conditions": "1 mg/kg i.p., 60 min before test, 5-min session"}, "[9]": {"conditions": "3 mg/kg i.p., 60 min before test, 5-min session"}},
  "data": [
    {"molecule": "CN1CCN(c2nc(N)nc(CN3C(=O)NC(C)(c4ccc5ccccc5c4)C3=O)n2)CC1", "note": "(stereo not shown) [KMP-10, 3-((4-amino-6-(4-methylpiperazin-1-yl)-1,3,5-triazin-2-yl)methyl)-5-methyl-5-(naphthalen-2-yl)imidazolidine-2,4-dione]", "values": [
      {"measurement": "PPB KD", "setting": "[1]; immobilized HSA and AGP 24:1, 5 µM compound", "value": 112, "unit": "µM"},
      {"measurement": "PPB KD, fold higher than warfarin", "setting": "[1]; vs warfarin", "value": "~ 10 fold"},
      {"measurement": "fraction unbound at 12 min, 5 µM", "setting": "[2]", "value": 0.155},
      {"measurement": "HEK-293 cells viability", "setting": "[3]", "value": "no effect"},
      {"measurement": "Total distance", "setting": "[4]; [7]", "value": "3240 ± 209", "unit": "cm"},
      {"measurement": "X Ambulation", "setting": "[4]; [7]", "value": "116 ± 18"},
      {"measurement": "Y Ambulation", "setting": "[4]; [7]", "value": "98 ± 20"},
      {"measurement": "Total distance", "setting": "[4]; [8]", "value": "4558 ± 205", "unit": "cm"},
      {"measurement": "X Ambulation", "setting": "[4]; [8]", "value": "152 ± 17"},
      {"measurement": "Y Ambulation", "setting": "[4]; [8]", "value": "63 ± 12"},
      {"measurement": "Total distance", "setting": "[4]; [9]", "value": "3881 ± 298", "unit": "cm"},
      {"measurement": "X Ambulation", "setting": "[4]; [9]", "value": "131 ± 18"},
      {"measurement": "Y Ambulation", "setting": "[4]; [9]", "value": "133 ± 25"},
      {"measurement": "Anxiolytic-like activity in EPM test", "setting": "[4]; rats, doses of 1 and 3 mg/kg i.p., 60 min before test", "value": "showed anxiolytic-like activity"},
      {"measurement": "Locomotor activity in EPM test", "setting": "[4]; rats, i.p.", "value": "no changes"},
      {"measurement": "Percentage of time spent in the open arms", "setting": "[4]; rats, i.p., 5-min session, ANOVA F(3,22) = 15.774, p < 0.0001", "value": "increased"},
      {"measurement": "Time spent in the open arms", "setting": "[4]; rats, i.p., 5-min session, ANOVA F(3,22) = 17.100, p < 0.0001", "value": "increased"},
      {"measurement": "Distance travelled in the open arms", "setting": "[4]; rats, i.p., 5-min session, ANOVA p < 0.01", "value": "increased"},
      {"measurement": "Anxiolytic-like effects in Vogel-conflict test", "setting": "[5]", "value": "confirmed"},
      {"measurement": "Caco-2 permeability classification", "setting": "Caco-2 cells; bands: Papp <2 low, 2-20 moderate, >20 × 10^−6 cm/s high", "value": "moderate permeability"},
      {"measurement": "Caco-2 absorption, fold weaker than caffeine", "setting": "Caco-2 cells; vs caffeine", "value": 3, "unit": "fold"},
      {"measurement": "Papp at 2 h, 10 µM", "setting": "[6]", "value": "6.27 ± 0.3", "unit": "×10⁻⁶ cm/s"}
    ]}
  ]
}
